Data reported in patent publication US6271242A, “Method for treating cancer using a tyrosine protein kinase inhibitor” (Bristol-Myers Squibb Co., priority 1992, dated 2001).
Entries after “also recorded” stand apart in the source; their conditions may differ.

Legend:
[1] = test system: B38-941 cells; assay: Reversion of morphologic transformation, trk5-transformed NIH3T3 cells; type: cell-based; settings: 100 nM K252a, as little as 36 hours
[2] = Morphology and toxicity, v-src-transformed NIH3T3 cells; type: cell-based; settings: mouse, v-src transformed nih3t3 cells; v-src transformed cells, no signs of morphologic reversion; data not shown; read-out: concentration at which toxic effect appears
[3] = test system: C74-321 cells; assay: as above; type: cell-based
[4] = test system: Z82-432 cells; assay: Reversion of transformed phenotype, gp145^trkB + BDNF transformed NIH3T3 cells; type: cell-based
[5] = test system: NIH3T3 cells co-transfected with pFRK44 (gp145^trkB) and pLL42 (BDNF); assay: Focus formation of NIH3T3 cells co-transfected with gp145^trkB and BDNF plasmids; type: cell-based; settings: 100 nM K252a
[6] = test system: PC12 cells; assay: FGF-induced neurite formation of PC12 cells; type: cell-based, rat; settings: concentrations as high as 300 nM; 50 ng/ml acidic and basic FGFs, three days
[7] = test system: gp145^trkC; assay: NT-3-induced tyrosine phosphorylation of gp145^trkC in R4-31 cells (Western blot); type: cell-based; settings: 100 nM K252a, 100 ng/ml NT-3, R4-31 (RA-31) cells
[8] = test system: gp140^trk; type: cell-based, rat; settings: 100 nM K252a, 100 ng/ml NGF, PC12 cells
[9] = test system: PDGF receptor; assay: PDGF-induced tyrosine phosphorylation of PDGF receptor in NIH3T3 cells (Western blot); type: cell-based; settings: 100 nM K252a, 100 ng/ml PDGF
[10] = test system: PC12 cells; assay: Proliferation of PC12 cells; type: cell-based, rat; settings: submicromolar concentrations; data not shown
[11] = test system: pp60^v-src; assay: In vitro tyrosine protein kinase assay of pp60^v-src immunoprecipitates (C74-321 cells); type: biochemical; settings: concentrations as high as 10 μM
[12] = Morphology and toxicity, v-fms-transformed NIH3T3 cells; type: cell-based; settings: mouse, v-fms transformed nih3t3 cells; v-fms transformed cells, no signs of morphologic reversion; data not shown; read-out: concentration at which toxic effect appears
[13] = test system: C51-642 cells; assay: as above; type: cell-based
[14] = test system: Z99-541 cells; assay: Reversion of transformed phenotype, gp140^trk + NGF transformed NIH3T3 cells; type: cell-based
[15] = test system: PC12 cells; assay: NGF-induced neuronal differentiation (neurite outgrowth) of PC12 cells; type: cell-based; settings: Rattus norvegicus, PC-12, 72 h; 50 ng/ml NGF, three days; read-out: IC50, block of appearance of neuritic processes in PC12 cells exposed to NGF
[16] = test system: NIH3T3 cells co-transfected with pFL20 (gp145^trkC) and pLL43 (NT-3); assay: Focus formation of NIH3T3 cells co-transfected with gp145^trkC and NT-3 plasmids; type: cell-based; settings: 100 nM K252a; pFL20 (gp145^trkC) + pLL43 (NT-3)
[17] = test system: pp60^v-src; assay: Tyrosine phosphorylation of pp60^v-src in C74-321 cells (Western blot); type: cell-based; settings: concentrations as high as 1 μM
[18] = test system: 106-632 cells; assay: Reversion of morphologic transformation, trk-transformed NIH3T3 cells; type: cell-based; settings: 100 nM K252a, as little as 36 hours
[19] = test system: human EGF receptor; assay: EGF-induced tyrosine phosphorylation of EGF receptor in F19-91 cells (Western blot); type: cell-based; settings: 100 nM K252a, 100 ng/ml EGF
[20] = test system: gp145^trkB; assay: BDNF-induced tyrosine phosphorylation of gp145^trkB in Z52-17 cells (Western blot); type: cell-based; settings: 100 nM K252a, 100 ng/ml BDNF
[21] = test system: NIH3T3 cells; assay: Toxicity and growth of untransfected NIH3T3 and NIH3T3-derived cells
[22] = test system: Z82-711 cells; assay: Reversion of transformed phenotype, gp145^trkC + NT-3 transformed NIH3T3 cells; type: cell-based
[23] = test system: NIH3T3 cells co-transfected with pDM69 (gp140^trk) and pLTRSNGF (NGF); assay: Focus formation of NIH3T3 cells co-transfected with gp140^trk and NGF plasmids; type: cell-based; settings: 100 nM K252a

## COC(=O)[C@@]1(O)C[C@H]2O[C@]1(C)n1c3ccccc3c3c4c(c5c6ccccc6n2c5c31)C(=O)NC4 (single isomer, unassigned) [K252a, (8R*,9S*,11S*)-(-)-9-hydroxy-9-methoxycarbonyl-8-methyl-2,3,9,10-tetrahydro-8,11-epoxy-1H,8H,11H-2,7b,11a-triazadibenzo(a,g) cycloocta(c,d,e)triinden-1-one]
[1]
  reversion of transformed phenotype: completely reverted
[2]
  MCC: ~1000 nM
[3]
  effect on morphology of v-src transformed cells: no effect
[3]; concentrations as high as 1 μM
  effect on transformed phenotype of v-src cells: no effect
[4]; 30 nM K252a, data not shown
  reversion of transformed phenotype: much more limited effect
[4]; 100 nM K252a, 2 to 4 days
  reversion of transformed phenotype: completely reverted
[5]
  Transforming Activity: 0 Foci per 10^5 cells
[6]
  effect on induction of neurite formation by FGF: no detectable effect
[7]
  phosphorylation on tyrosine residues of ligand-activated gp145^trkC: completely abolished
[8]
  NGF-induced phosphorylation of gp140^trk on tyrosine residues: completely abolished
[9]
  phosphorylation on tyrosine residues of the PDGF receptor: no effect
[10]
  inhibitory effect on proliferation of PC12 cells: did not have a significant inhibitory effect
[11]
  inhibitory effect on catalytic activity of pp60^v-src: did not have any significant inhibitory effect
[12]
  MCC: ~1000 nM
[13]
  effect on morphology of v-fms transformed cells: no effect
[13]; concentrations as high as 1 μM
  effect on transformed phenotype of v-fms cells: no effect
[14]; 30 nM K252a, data not shown
  reversion of transformed phenotype: much more limited effect
[14]; 100 nM K252a, 2 to 4 days
  reversion of transformed phenotype: completely reverted
[15]
  IC50: ~40 nM
[16]
  Transforming Activity: 0 Foci per 10^5 cells
[17]
  inhibitory effect on levels of tyrosine phosphorylation of pp60^v-src: did not have any inhibitory effect
[18]
  reversion of transformed phenotype: completely reverted
[19]
  phosphorylation on tyrosine residues of the EGF receptor: no effect
[20]
  phosphorylation on tyrosine residues of ligand-activated gp145^trkB: completely abolished
[21]; 300 nM or lower
  effect on growth properties / proliferation rate of the cells: not observed; also recorded: no significant effect
[21]; concentrations as high as 300 nM, NIH3T3-derived cells
  detectable toxic effects: nor elicit any detectable toxic effects
[21]; micromolar concentrations, particularly untransfected NIH3T3 cells, data not shown
  toxicity to cells: considerably toxic
[22]; 30 nM K252a, data not shown
  reversion of transformed phenotype: much more limited effect
[22]; 100 nM K252a, 2 to 4 days
  reversion of transformed phenotype: completely reverted
[23]
  Transforming Activity: 0 Foci per 10^5 cells
